Values joined by “and” are separate entries in the source; they are usually repeats but may differ in a detail not shown here. Identical values can stand only once.

Data set [1] is described as follows: cell cytotoxicity assay (MTT). The format is cell-based. Conditions: human, 50% cytotoxicity concentration, Huh7 (NS3-5B) cells. Here is the method:
To determine if the compounds were cytotoxic to Huh7 (NS3-5B) cells, the cells (1 × 10^4 cells per well) were plated on 96-well microtiter plates and were incubated at 37 °C in 5% CO2 overnight. Various concentrations of the compounds were added to the wells. 48 h later, 10 μL of MTT (M2128, Sigma, Shanghai, China) were added to each well and incubated at 37 °C for 4 h. One-hundred microliters of MTT buffer (10% SDS + 5% isobutyl alcohol + 10 mmol/L HCl) were added overnight, and the optical density readings were measured by colorimeter at 580 and 680 nm.

On the set-up of data set [2]: method as in SPECS. Conditions: values provided by vendor; ref SPECS; cited from earlier work.
On the set-up of data set [3]: method as in SPECS. Conditions: values provided by vendor; ref SPECS; cited from earlier work. The source holds these as a separate data set.
For data set [4], the system named is HCV replicon, Huh7 (NS3-5B) cells. As to the kind of experiment: cell-based HCV replicon assay (luciferase). Also on record: species or system Hepatitis C virus genotype 1b. Conditions: for IC50: genotype 1b, Huh7 (NS3-5B) cells, 48 h incubation, luciferase readout; for SI (selectivity index): ratio of CC50/IC50. Here is the method: Huh7 (NS3-5B) cells correspond to a stable cell line transfected with HCV NS3-5B genotype 1b. The cells were seeded (1 × 10^4 cells per well) in Dulbecco’s Modified Eagle Medium (DMEM) supplemented with 10% fetal bovine serum, 2 mM glutamine, penicillin (100 IU/mL)/streptomycin (100 μg/mL), 1× nonessential amino acids and 0.5 mg/mL G418 in 96-well plates overnight. Compounds were diluted and added to each well. Each concentration was measured in duplicate. After 48 h of incubation, 100 μL of Steady-Glo Luciferase buffer (E2550, Promega, Beijing, China) was added to each well and shaken for 10 min, and the results were read on plate reader (ENVISION, PerkinElmer, Shanghai, China). The IC50 values were calculated by fitting with the parameter of the Hill equation.

Another data set addresses T1, HCV NS3/4A protease (Hepatitis C virus genotype 1b, UniProt O92972).
T1 construct: HCV NS3/4A protease diluent (10 ng, 10 μL); purchased AnaSpec 71126 (assay kit)
As to the kind of experiment: HCV NS3/4A protease assay (SensoLyte 490 kit). The conditions noted are these: inhibition percentage at 50 μM in biochemical protease assay, mean of duplicate wells. Here is the method:
A SensoLyte® 490 HCV Protease Assay Kit (AnaSpec, Cat#71126) was used for screening HCV protease inhibitors. The test compounds (100 nL of 200× final concentration, prepared by the ECHO liquid handler (ECHO, Labcyte, CA, USA)) and HCV NS3/4A protease diluent (10 ng, 10 μL) were added into a 384-well black microplate (Corning #3573). The known HCV NS3/4A protease inhibitor (Ac-DEDif-EchaC, AnaSpec Cat#25346) was used as a control. The plate was incubated at room temperature for enzymatic reaction for 10 min. In the meantime, the HCV NS3/4A protease substrate solution was also incubated at the same temperature. The reaction was initiated by adding 10 μL of HCV NS3/4A protease substrate. The reagents were completely mixed by shaking the plate gently for 30–60 s. For the kinetic reading, the fluorescence intensity at Ex/Em = 340 nm/490 nm was immediately measured, and the data was recorded every 2 min for 30 min.

T1 sequence (O92972 1658-1711): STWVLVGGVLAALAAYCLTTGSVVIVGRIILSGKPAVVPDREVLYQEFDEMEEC
T1 sequence (O92972 1027-1657): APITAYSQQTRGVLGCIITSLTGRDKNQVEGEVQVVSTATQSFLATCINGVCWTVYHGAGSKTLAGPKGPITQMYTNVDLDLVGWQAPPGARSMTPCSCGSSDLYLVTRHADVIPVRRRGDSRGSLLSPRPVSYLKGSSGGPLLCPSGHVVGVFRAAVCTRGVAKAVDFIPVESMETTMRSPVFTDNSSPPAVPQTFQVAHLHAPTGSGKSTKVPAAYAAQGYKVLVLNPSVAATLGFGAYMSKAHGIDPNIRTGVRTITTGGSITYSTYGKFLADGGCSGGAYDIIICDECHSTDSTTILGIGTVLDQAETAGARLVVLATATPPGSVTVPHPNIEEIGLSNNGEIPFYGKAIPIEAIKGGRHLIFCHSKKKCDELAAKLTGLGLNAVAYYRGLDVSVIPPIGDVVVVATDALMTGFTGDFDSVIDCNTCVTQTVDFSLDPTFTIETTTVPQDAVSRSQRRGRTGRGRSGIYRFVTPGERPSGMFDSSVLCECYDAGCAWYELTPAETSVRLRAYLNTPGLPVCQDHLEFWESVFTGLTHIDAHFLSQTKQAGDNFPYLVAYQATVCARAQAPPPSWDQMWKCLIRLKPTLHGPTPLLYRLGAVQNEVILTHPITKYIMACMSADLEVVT

One may read the CC50 as the concentration that lowers cell viability or growth by half. Low readings indicate greater toxicity to the cells, high ones lower toxicity to the cells. One may read the LogP as a log measure of how a compound divides between an organic and an aqueous phase. The IC50 is the midpoint of a concentration-inhibition curve. Lower therefore signals inhibition by little substance. Broadly, the inhibition is the share of the control response that was lost under treatment. The low end stands for a weak effect, the high end for a strong effect. `O=C(N/N=C/c1ccc(O)cc1O)c1[nH]nc2c1CCCC2` [Compound 1]: in data set [1], it took 0.46 µM to reach half-maximal cytotoxicity (CC50 at 48 h). Besides, the LogS in data set [2] is −3.01. Moreover, in data set [3], the LogP is 0.27. Besides, the IC50 in data set [4] (Hepatitis C virus, Huh-7, 48 h) came out at 4.69 µM. In data set [4], the “SI (selectivity index)” value is 0.10. This compound also yielded an inhibition at 50 µM at HCV NS3/4A protease of 96.7%.

For `O=C(NC(C(=O)N/N=C/c1ccc(O)cc1O)c1n[nH]c(=O)c2ccccc12)c1ccccc1` (stereo not shown) [Compound 2], in data set [1], the CC50 at 48 h is greater than 50 µM. Besides, the LogS in data set [2] is listed as −3.90. Further, the LogP in data set [3] is 1.95. This compound also gave an IC50 in data set [4] (Hepatitis C virus, Huh-7, 48 h) of 11.2 µM. In addition, the “SI (selectivity index)” value in data set [4] is greater than 4.46. At HCV NS3/4A protease, this compound showed an inhibition at 50 µM of 77.9%.

Consider `Cc1ccc(O)c(/C=N/NC(=O)C2C(=O)NCC2c2ccccc2)c1` (stereo not shown) [Compound 3], for which the CC50 at 48 h in data set [1] is greater than 50 µM. The LogS in data set [2] was −3.69. In data set [3], the LogP was 2.75. The compound further gave an IC50 in data set [4] (Hepatitis C virus, Huh-7, 48 h) of 13.4 µM. Moreover, in data set [4], the “SI (selectivity index)” value is on record as greater than 3.73.

`COc1ccc(/C=N/NC(=O)c2ccc(O)cc2O)cc1O` [Compound 4] gave a CC50 at 48 h in data set [1] greater than 50 µM. In data set [2], the LogS is listed as −2.48. Further, in data set [3], the LogP was 2.2. The compound also showed an IC50 in data set [4] (Hepatitis C virus, Huh-7, 48 h) of 15.3 µM. Besides, the “SI (selectivity index)” value in data set [4] is greater than 3.27. For the same compound, the inhibition at 50 µM at HCV NS3/4A protease was 56.9%.

As to `COc1cccc(/C=N/NC(=O)c2cc3ccccc3nc2C)c1O` [Compound 5], the CC50 at 48 h in data set [1] is greater than 50 µM. The LogS in data set [2] is reported as −4.05. For the same compound, the LogP in data set [3] is 3.17. Moreover, the IC50 turned out to be 3 µM in data set [4] (Hepatitis C virus, Huh-7, 48 h) and 3.01 µM in data set [4].

Turning to `O=C(CSc1nnc(CNc2ccccc2)n1-c1ccc(Cl)cc1Cl)N/N=C/c1c2ccccc2cc2ccccc12` [Compound 6], the CC50 at 48 h in data set [1] was found to be 14.8 µM. Moreover, the LogP in data set [3] is 7.08. This compound displayed an IC50 in data set [4] (Hepatitis C virus, Huh-7, 48 h) of 5.04 µM. Moreover, in data set [4], the “SI (selectivity index)” value amounted to 2.94. Also, the inhibition at 50 µM on HCV NS3/4A protease was 48.1%.

In turn, `CCC(C)c1ccc(-c2cc(C(=O)N/N=C/c3cccnc3)c3ccccc3n2)cc1` (stereo not shown) [Compound 7] displayed a CC50 at 48 h in data set [1] of 11.8 µM. The LogS in data set [2] was −5.53. Further, in data set [3], the LogP is reported as 5.84. This compound showed an IC50 in data set [4] (Hepatitis C virus, Huh-7, 48 h) of 4.14 µM. In data set [4], the “SI (selectivity index)” value is on record as 2.85. In addition, the inhibition at 50 µM on HCV NS3/4A protease was found to be 64.3%.

The compound `NC(=S)N/N=C/c1cccc(O)c1O` [Compound 8] gave a CC50 at 48 h in data set [1] of 1.12 µM. Further, in data set [2], the LogS was −1.89. The LogP in data set [3] is on record as 1.51. This compound also registered an IC50 in data set [4] (Hepatitis C virus, Huh-7, 48 h) of 6.23 µM. Also, the “SI (selectivity index)” value in data set [4] worked out at 0.18.

Turning to `NC(=S)N/N=C/c1ccc(O)c(O)c1` [Compound 9], in data set [2], the LogS is listed as −1.03. Besides, in data set [3], the LogP is 1.53. In addition, at 50 µM the inhibition against HCV NS3/4A protease was 33.7%.

Turning to `O=C1c2ccccc2C(=O)N1/N=C/c1cccc(O)c1O` [Compound 10], the CC50 at 48 h in data set [1] is greater than 50 µM. In addition, the LogS in data set [2] is recorded as −2.5. Besides, in data set [3], the LogP was 2.18. This compound yielded an IC50 in data set [4] (Hepatitis C virus, Huh-7, 48 h) of 7.07 µM. The “SI (selectivity index)” value in data set [4] is greater than 7.07.

On to `C=CCc1cccc(/C=N/c2ccc(OC)cc2)c1O` [Compound 11], for which the CC50 at 48 h in data set [1] is greater than 50 µM. Further, the LogS in data set [2] is recorded as −4.16. Besides, the LogP in data set [3] is listed as 4.43. The IC50 in data set [4] (Hepatitis C virus, Huh-7, 48 h) was less than 10 µM; in data set [4], 5.1 µM and 5.14 µM.

Compound `Oc1ccc2cc(Br)ccc2c1/C=N/c1nc[nH]n1` [Compound 12] displayed a CC50 at 48 h in data set [1] greater than 50 µM. Also, in data set [2], the LogS is reported as −2.67. Moreover, the LogP in data set [3] was 3.23. In data set [4] (Hepatitis C virus, Huh-7, 48 h), the IC50 is 16.1 µM. In addition, in data set [4], the “SI (selectivity index)” value is given as greater than 3.11. The inhibition at 50 µM at HCV NS3/4A protease is 53%.

For `COc1ccc(-c2cc(C(=O)Nc3ccc(S(=O)(=O)Nc4nccs4)cc3)c3ccccc3n2)c(OC)c1` [Compound 14], the CC50 at 48 h in data set [1] is greater than 50 µM. For the same compound, the LogS in data set [2] was −7.55. For the same compound, the LogP in data set [3] is 5.1. Further, the IC50 in data set [4] (Hepatitis C virus, Huh-7, 48 h) is 20.7 µM. Further, the “SI (selectivity index)” value in data set [4] is listed as greater than 2.42.

In turn, `CCCCC(CC)C(=O)Nc1nnc(Cc2ccc(OC)cc2)s1` (stereo not shown) [Compound 15] gave a CC50 at 48 h in data set [1] greater than 50 µM. In addition, in data set [2], the LogS is −5.64. Moreover, in data set [3], the LogP was 4.57. Also, the IC50 in data set [4] (Hepatitis C virus, Huh-7, 48 h) was found to be 28.2 µM. For the same compound, the “SI (selectivity index)” value in data set [4] was greater than 1.77. In addition, the inhibition at 50 µM against HCV NS3/4A protease turned out to be 41.8%.

The compound `O=C(COC(=O)c1cccc(N2C(=O)C3C4c5ccccc5C(c5ccccc54)C3C2=O)c1)c1ccc(Br)cc1` (stereo not shown) [Compound 16] came in with a half-maximal cytotoxic concentration (CC50) at 48 h in data set [1] greater than 50 µM. In addition, in data set [2], the LogS is listed as −8.04. Also, in data set [3], the LogP is listed as 4.48. This compound had an IC50 in data set [4] (Hepatitis C virus, Huh-7, 48 h) of 9.42 µM. In addition, in data set [4], the “SI (selectivity index)” value is given as greater than 5.31.
